Assay results from PubChem BioAssay AID1996.
In brackets after ≈: the same amount, converted by molar mass.

Conditions: buffer; pH 7.4; 200.0 µM

| Compound | solubility kinetic |
| --- | --- |
| NC(=O)C1CCN(CCC(=O)Nc2ccc(F)c(F)c2)CC1 | > 46.7 µg/mL |
| CN1CCN(c2nc(Nc3ccccc3)nc(N)c2[N+](=O)[O-])CC1 | 47.5 µg/mL (≈ 144 µM) |
| COc1ccc(-c2cc(-c3ccccc3)nc(Cl)n2)cc1OC | < 0.3 µg/mL |
| O=C(NCc1ccccn1)Nc1cccc(F)c1 | 35.9 µg/mL (≈ 146 µM) |
| Cc1cc(C(=O)N2CCN(Cc3ccccc3)CC2)ccc1[N+](=O)[O-] | > 50.9 µg/mL |
| COc1ccc(NC(=O)C(=S)NC2CCCCC2)cc1 | < 0.3 µg/mL |
| COc1ccc(OS(=O)(=O)c2c(C)noc2C)cc1 | 29.3 µg/mL (≈ 103 µM) |
| CCCN1CCN(S(=O)(=O)c2ccc3c(c2)CCC(=O)N3)CC1 | > 50.6 µg/mL |
| CC(C)CN(C(=O)CCNC(=O)c1ccc([N+](=O)[O-])cc1)C1CCS(=O)(=O)C1 (stereo not given) | 57 µg/mL (≈ 139 µM) |
| COc1cccc(N2CCC(N3CCN(C)C(CCO)C3)CC2)c1 (stereo not given) | 48.4 µg/mL (≈ 145 µM) |
| CCN(CC)C(=O)COCc1cc(-c2ccc3c(c2)OCO3)on1 | > 49.9 µg/mL |
| COc1ccc(C(=O)OCC(=O)c2ccc(CNC(C)=O)s2)cc1 | > 52.1 µg/mL |
| Cc1nnc(SCC(=O)O)s1 | > 28.5 µg/mL |
| CC(C)N(Cc1ccccc1)C(=O)CCc1ccccc1 | 36.8 µg/mL (≈ 131 µM) |
| CCCCc1nc(NCCO)c(C#N)c2c1CCCC2 | 3.6 µg/mL (≈ 13.2 µM) |
| CCN(CC(=O)Nc1c(F)cccc1F)C(=O)c1cnccn1 | > 48 µg/mL |
| Cc1ccc(CCN2CC(C(=O)NC(C)C)CC2=O)cc1 (stereo not given) | > 43.3 µg/mL |
| Cc1ccc(C(=O)CCC(=O)N2CCC(C(N)=O)CC2)s1 | > 46.3 µg/mL |
| Cc1cc(S(=O)(=O)N2CCCCC2)c(C)s1 | > 38.9 µg/mL |
| O=C(Nc1nc2ccc(F)cc2s1)c1cccs1 | 1.1 µg/mL (≈ 3.95 µM) |
| CCc1c(-c2ccccc2)nc2sc3c(c2c1N)CCCC3 | < 0.3 µg/mL |
| COc1ccc(C2=CSC3=NCCN23)cc1[N+](=O)[O-] | 40.2 µg/mL (≈ 145 µM) |
| COCn1c(C(O)c2ccccc2)cc2ccccc21 (stereo not given) | 38.9 µg/mL (≈ 146 µM) |
| Cc1ccc(C)c(C(C)NC(=O)C2CCCC2)c1 (stereo not given) | 33.2 µg/mL (≈ 135 µM) |

| Compound | solubility kinetic |
| --- | --- |
| N#Cc1ncn(-c2ccc(Oc3ccccc3)cc2)c1N | 4 µg/mL (≈ 14.5 µM) |
| CN(CC(=O)Nc1ccc(F)cc1[N+](=O)[O-])C1CCS(=O)(=O)C1 (stereo not given) | > 51.8 µg/mL |
| CN1CCCN(C(=O)CNC(=O)Cc2ccccc2)CC1 | > 43.4 µg/mL |
| CC(=O)N1CCN(S(=O)(=O)c2ccc(C)cc2)C1C (stereo not given) | > 42.4 µg/mL |
| N#Cc1cccc(Nc2c3c(nc4ccccc24)CCC3)c1 | 8.4 µg/mL (≈ 29.4 µM) |
| N#Cc1c(-c2ccccc2)nc(SCc2ccc(Cl)cc2)[nH]c1=O | 51.9 µg/mL (≈ 147 µM) |
| CC(CC(=O)NCCc1ccc(S(N)(=O)=O)cc1)c1ccccc1 (stereo not given) | > 52 µg/mL |
| O=C(O)c1cc([N+](=O)[O-])ccc1C(=O)Nc1cccc([N+](=O)[O-])c1 | > 49.7 µg/mL |
| COc1ccc(C(=O)Nc2ccc3nc(C)c(C)nc3c2)cc1 | 5.3 µg/mL (≈ 17.2 µM) |
| Cc1ccc(C)c(NC(=O)C2CC(O)CN2C(=O)Oc2ccccc2)c1 (stereo not given) | 45.4 µg/mL (≈ 128 µM) |
| COc1cc2c(cc1OC)C(C(=O)NC(C)C)C1CCCCN1C2=O (stereo not given) | > 52 µg/mL |
| O=C1CC(c2ccc(F)cc2)CC2=C1C=Nc1ccccc1N2 (stereo not given) | 0.7 µg/mL (≈ 2.29 µM) |
| Cc1noc(C)c1CSCC(=O)Nc1cccc(C(F)(F)F)c1 | > 51.7 µg/mL |
| O=C(CCc1ccccc1)N1CCN(c2ccccc2F)CC1 | 45.7 µg/mL (≈ 146 µM) |
| O=C(Nc1ccccc1N1CCCC1)C1=COCCO1 | > 41.1 µg/mL |
| CC1CCC(NC(=S)NCCN(C)C)CC1 (stereo not given) | 25.6 µg/mL (≈ 105 µM) |
| CC(C)CNC(=S)N1CCC(Cc2ccccc2)CC1 | 9.3 µg/mL (≈ 32 µM) |
| Cc1ccccc1CC(=O)Nc1cc(C(C)(C)C)on1 | 36.9 µg/mL (≈ 135 µM) |
| C#CCn1c(C)cc(C)c(S(=O)(=O)c2ccccc2)c1=O | > 45.2 µg/mL |
| CCOc1ccccc1NC(=O)NC(=O)N(C)S(C)(=O)=O | 18 µg/mL (≈ 57.1 µM) |
| CN1CC(C(=O)c2ccc(F)cc2)C(c2ccc(F)cc2)C1 (stereo not given) | > 45.2 µg/mL |
| CC(C)COC(=O)N1C[C@H](O)C[C@H]1C(=O)Nc1ccc(Cl)cc1 | > 51.1 µg/mL |
| CC(C)Oc1ccc(C(CC(=O)N2CCOCC2)C(C)C)cc1 (stereo not given) | > 47.9 µg/mL |
| Cc1cccc(OCc2nnc(SC(C)C(=O)Nc3ccc(N4CCOCC4)cc3)o2)c1 (stereo not given) | > 68.2 µg/mL |

| Compound | solubility kinetic |
| --- | --- |
| CCn1cc(CN2CCN(C)C(CCO)C2)c2ccccc21 (stereo not given) | 45 µg/mL (≈ 149 µM) |
| Cn1c(=O)[nH]c(=O)c2c1nc1n2CC(COc2ccc3ccccc3c2)O1 (stereo not given) | 0.4 µg/mL (≈ 1.1 µM) |
| COC(=O)C1=C(C)NC(=O)NC1c1ccc(-c2ccc(Cl)cc2)o1 (stereo not given) | 4.8 µg/mL (≈ 13.8 µM) |
| O=c1[nH]c2ccccc2nc1C(F)(F)F | > 32.1 µg/mL |
| CC(C)(C)C(=O)N(Cc1ccccc1)c1ccccn1 | 40.2 µg/mL (≈ 150 µM) |
| CC(=O)Nc1ccc(NC(=O)CC23CC4CC(CC(C4)C2)C3)cc1 | 21.3 µg/mL (≈ 65.2 µM) |
| O=C(O)/C=C/C(=O)N1CCN(C(c2ccccc2)c2ccccc2)CC1 | > 52.6 µg/mL |
| NC(=O)c1ccccc1OCC(=O)N1CCc2ccccc2C1 | > 46.6 µg/mL |
| Cc1ccc(S(=O)(=O)NCC[C@@]2(C)C3CCC2(C)C(=O)C3)cc1 (stereo not given in full) | > 50.3 µg/mL |
| Cc1nn(CC(=O)NC2CCCC2)c(C)c1[N+](=O)[O-] | > 39.9 µg/mL |
| Cc1nnc(SC(C)C(=O)NC2CCCCC2C)s1 (stereo not given) | > 44.9 µg/mL |
| Cc1onc(-c2ccccc2Cl)c1C(=O)NCc1ccccc1F | > 51.7 µg/mL |
| C=CCNC(=S)NC(=O)c1csc([N+](=O)[O-])c1 | 38.5 µg/mL (≈ 142 µM) |
| c1ccc(OCCCCN2CCCCC2)cc1 | 29.6 µg/mL (≈ 127 µM) |
| O=S(=O)(Nc1cccnc1Cl)c1ccc(F)cc1 | > 43 µg/mL |
| O=C(Nc1ccc(Br)cc1)C1Cc2ccccc2O/C1=N\O (stereo not given) | < 0.4 µg/mL |
| CCc1nc2ccccc2c(C(=O)Nc2ccc(F)cc2)c1C | < 0.3 µg/mL |
| N#CCC(=O)Nc1ccc(C(=O)OCC(=O)N2CCN(C(=O)c3ccco3)CC2)cc1 | > 63.7 µg/mL |
| CCC(=Nc1ccccc1N)c1c(O)[nH]c(=O)[nH]c1=O | 5.6 µg/mL (≈ 20.4 µM) |
| O=C(/C=C/c1ccc(F)cc1)NCCCn1ccnc1 | > 41 µg/mL |
| CCNC(=S)NNC(=O)c1nn(C)c(C)c1Cl | > 41.4 µg/mL |
| CN(C(=O)CSc1nc2c(c(=O)[nH]1)CCC2)c1ccccc1 | > 47.3 µg/mL |
| CC(C)(C)N1CC(C(=O)Nc2ccc(S(N)(=O)=O)cc2)CC1=O (stereo not given) | > 50.9 µg/mL |
| NC(=O)Nc1ccccc1C(=O)Nc1ccc2ccccc2c1 | 19.6 µg/mL (≈ 64.2 µM) |

| Compound | solubility kinetic |
| --- | --- |
| CN(C)C(=S)Nc1nc2ccccc2s1 | 5.4 µg/mL (≈ 22.8 µM) |
| CN(C(=O)c1ccccc1OCc1ccc(Cl)cc1)c1ccccc1 | 10.7 µg/mL (≈ 30.4 µM) |
| Cc1ccc(C2Nc3ccccc3C(=O)N2CCCN2CCOCC2)cc1 (stereo not given) | 50.3 µg/mL (≈ 138 µM) |
| CCCCCCOC(=O)Cc1c(C)nc(N)[nH]c1=O | > 40.1 µg/mL |
| CCOc1ccc(Cc2c(C)[nH]c3ccc(C(=O)O)cc3c2=S)cc1 | 36.2 µg/mL (≈ 102 µM) |
| Cc1ccccc1NC(=O)CCCN1C(=O)C2CC=CCC2C1=O (stereo not given) | > 49 µg/mL |
| O=C(CCNC(=O)c1ccco1)Nc1ccc(Cl)cc1F | > 46.6 µg/mL |
| Cc1cccnc1NC(=O)CCc1c[nH]c2ccccc12 | > 41.9 µg/mL |
| O=C(CSc1nncs1)NNC(=O)c1ccccc1Br | > 56 µg/mL |
| CSCCCN1CCCC(CO)(Cc2ccccc2F)C1 (stereo not given) | > 46.7 µg/mL |
| CCCn1c(CCNC(=O)c2ccco2)nc2ccccc21 | 41.7 µg/mL (≈ 140 µM) |
| O=[N+]([O-])c1ncc(Br)cc1Nc1ccccc1 | 16.3 µg/mL (≈ 55.4 µM) |
| CCCOc1ccc(Cc2c(O)nc(N)[nH]c2=O)cc1C | 15.6 µg/mL (≈ 53.9 µM) |
| CN1C(=O)CN=C(c2ccccc2Cl)c2cc(Br)ccc21 | 51.9 µg/mL (≈ 143 µM) |
| COc1cccc(NC(=O)Nc2ccc(Br)cn2)c1 | < 0.2 µg/mL |
| O=C(OCC(=O)N1CCOCC1)c1ccc2ccccc2c1 | > 44.9 µg/mL |
| N/C(=N\OC(=O)C(c1ccccc1)c1ccccc1)c1ccncc1 | 47.5 µg/mL (≈ 143 µM) |
| CCC(=O)OC1(Cc2ccc(CC)cc2)CC(C)N(C)CC1C.Cl (stereo not given) | 46.9 µg/mL |
| COc1ccc(CCC(=O)NCc2cn3ccccc3n2)cc1 | > 46.4 µg/mL |
| COc1ccc(NC(=O)N2CCc3ccccc3C2)c(OC)c1 | 42.3 µg/mL (≈ 135 µM) |
| Cc1cc(C)c(NC(=O)CCCSc2nnc(N)s2)c(C)c1 | > 50.5 µg/mL |
| COc1ccc(CN2CCN(CC3CC3)CC2CCO)cc1C (stereo not given) | > 47.8 µg/mL |
| O=C(Nc1ccccc1)OCCOc1cccc(Br)c1 | 6.6 µg/mL (≈ 19.6 µM) |
| Cc1ccc(-c2csc(NC(=O)c3ccccc3F)c2C(=O)O)cc1 | > 53.3 µg/mL |

| Compound | solubility kinetic |
| --- | --- |
| CC(NC(=O)CN(c1ccc(Br)cc1)S(C)(=O)=O)c1ccccc1 (stereo not given) | > 61.7 µg/mL |
| OC(C#CCCN1CCCCC1)(c1ccccc1)c1ccccc1 | 37.7 µg/mL (≈ 118 µM) |
| Cn1c(=O)c2c(nc(SCC(=O)N3CCOCC3)n2C)n(C)c1=O | > 53 µg/mL |
| CCCc1nnc(NC(=O)CCC(=O)N2CCCCC2)s1 | > 46.6 µg/mL |
| Cc1cccnc1NC(=O)C1CCC1 | 23.4 µg/mL (≈ 123 µM) |
| COC(=O)Nc1c(-c2ccccc2)nc2ccc(Cl)cn12 | 2.2 µg/mL (≈ 7.29 µM) |
| Nc1ccccc1C(=O)NCc1ccco1 | > 32.4 µg/mL |
| Cc1ccc(CSCC(=O)Nc2ccccc2C(=O)O)cc1 | > 47.3 µg/mL |
| C=CCNc1nc(C)c(CNc2c(C)cc(C)cc2C)nc1C#N | 0.9 µg/mL (≈ 2.8 µM) |
| Nc1ncc2c(n1)-c1ccoc1CC2 | > 28.1 µg/mL |
| Cc1ccnc(NC(=O)c2cc(F)c(F)cc2Cl)n1 | > 42.6 µg/mL |
| O=C1Nc2ccc([N+](=O)[O-])cc2OC1CCN1CCCC1 (stereo not given) | > 43.7 µg/mL |
| CN(CCN(C)C(C)(C)C)C(=O)C(c1ccccc1)c1ccccc1 | 48 µg/mL (≈ 142 µM) |
| Cc1ccc(C)c(Nc2c([N+](=O)[O-])ccc3nonc23)c1 | 0.2 µg/mL (≈ 0.704 µM) |
| O=C(c1nc2ccccc2[nH]1)c1ccccc1[N+](=O)[O-] | 32.3 µg/mL (≈ 121 µM) |
| O=C(C1=C(O)C(=O)N(Cc2cccnc2)C1c1cccc(Oc2ccccc2)c1)c1ccco1 (stereo not given) | > 67.9 µg/mL |
| Cc1ccc(C(=O)NC2CC3CCC(C2)N3)cc1 (stereo not given) | > 36.7 µg/mL |
| Cc1cc(C)nc(NC(=O)c2ccc(C)c(C)c2)n1 | 35.2 µg/mL (≈ 138 µM) |
| O=C(N/N=C/c1ccccc1O)C1CCCC1 | > 34.8 µg/mL |
| Cc1ccc(C)c(OCCC(=O)OCC(=O)NCc2ccc(F)cc2)c1 | 3.7 µg/mL (≈ 10.3 µM) |
| Cc1cc(C)c(C)c(S(=O)(=O)N[C@@H](C)C(=O)OCC(=O)NC2CCCC(C)C2C)c1C (stereo not given in full) | 27.8 µg/mL (≈ 61.4 µM) |
| Cc1cc(N2CCCC2)ccc1C=C(C#N)C#N | 0.5 µg/mL (≈ 2.11 µM) |
| CN(Cc1ccccc1)S(=O)(=O)c1ccc(NC(=O)C2CCCCC2C(=O)O)cc1 (stereo not given) | > 64.6 µg/mL |
| O=C(CSc1ccccn1)Nc1ccc2c(c1)OCO2 | > 43.2 µg/mL |
